# Source: ChEMBL document CHEMBL1130825, “Novel D-ring analogues of podophyllotoxin as potent anti-cancer agents” (1998)
# System: COLO 205
# Assay: In vitro cytotoxicity against human colon cancer COLO 205 cell line
# Type: functional
# Details: not given
row,Compound,GI50
1,COC(=O)[C@@H]1C(c2cc(OC)c(OC)c(OC)c2)c2cc3c(cc2[C@@H]2OC(=O)OC[C@@H]12)OCO3 (some centres not stated),2 µM
2,CCOC(=O)[C@@H]1C(c2cc(OC)c(OC)c(OC)c2)c2cc3c(cc2[C@@H]2OC(=O)OC[C@@H]12)OCO3 (some centres not stated),1.5 µM
3,CCOC(=O)[C@@H]1[C@H](c2cc(OC)c(O)c(OC)c2)c2cc3c(cc2[C@@H]2OC(=O)OC[C@@H]12)OCO3,30 µM
4,COC(=O)[C@@H]1[C@H](c2cc(OC)c(O)c(OC)c2)c2cc3c(cc2[C@@H]2OC(=O)OC[C@@H]12)OCO3,0.2 µM
5,COc1cc([C@@H]2c3cc4c(cc3[C@H](O)[C@@H](CO)[C@@H]2C(=O)O)OCO4)cc(OC)c1OC,< 0.01 µM
6,CCCOC(=O)[C@@H]1C(c2cc(OC)c(OC)c(OC)c2)c2cc3c(cc2[C@@H]2OC(=O)OC[C@@H]12)OCO3 (some centres not stated),0.9 µM
7,COc1cc([C@@H]2c3cc4c(cc3[C@@H](O[C@@H]3O[C@@H]5CO[C@@H](C)O[C@H]5[C@H](O)[C@H]3O)[C@H]3COC(=O)[C@H]23)OCO4)cc(OC)c1O [ETOPOSIDE],18.1 µM

# System: HCT-15
# Assay: In vitro cytotoxicity against human colon cancer HCT 15 cell line
# Type: functional
# Details: not given
row,Compound,GI50
1,COC(=O)[C@@H]1C(c2cc(OC)c(OC)c(OC)c2)c2cc3c(cc2[C@@H]2OC(=O)OC[C@@H]12)OCO3 (some centres not stated),10 µM
2,CCOC(=O)[C@@H]1C(c2cc(OC)c(OC)c(OC)c2)c2cc3c(cc2[C@@H]2OC(=O)OC[C@@H]12)OCO3 (some centres not stated),0.2 µM
3,CCOC(=O)[C@@H]1[C@H](c2cc(OC)c(O)c(OC)c2)c2cc3c(cc2[C@@H]2OC(=O)OC[C@@H]12)OCO3,0.4 µM
4,COC(=O)[C@@H]1[C@H](c2cc(OC)c(O)c(OC)c2)c2cc3c(cc2[C@@H]2OC(=O)OC[C@@H]12)OCO3,0.4 µM
5,COc1cc([C@@H]2c3cc4c(cc3[C@H](O)[C@@H](CO)[C@@H]2C(=O)O)OCO4)cc(OC)c1OC,> 100 µM
6,CCCOC(=O)[C@@H]1C(c2cc(OC)c(OC)c(OC)c2)c2cc3c(cc2[C@@H]2OC(=O)OC[C@@H]12)OCO3 (some centres not stated),0.3 µM
7,COc1cc([C@@H]2c3cc4c(cc3[C@H](O)[C@H]3COC(=O)[C@H]23)OCO4)cc(OC)c1OC [PODOFILOX],0.02 µM

# System: HCT-116
# Assay: In vitro cytotoxicity against human colon cancer HCT 116 cell line
# Type: functional
# Details: not given
row,Compound,GI50
1,COC(=O)[C@@H]1C(c2cc(OC)c(OC)c(OC)c2)c2cc3c(cc2[C@@H]2OC(=O)OC[C@@H]12)OCO3 (some centres not stated),> 30 µM
2,CCOC(=O)[C@@H]1C(c2cc(OC)c(OC)c(OC)c2)c2cc3c(cc2[C@@H]2OC(=O)OC[C@@H]12)OCO3 (some centres not stated),0.09 µM
3,CCOC(=O)[C@@H]1[C@H](c2cc(OC)c(O)c(OC)c2)c2cc3c(cc2[C@@H]2OC(=O)OC[C@@H]12)OCO3,0.6 µM
4,COC(=O)[C@@H]1[C@H](c2cc(OC)c(O)c(OC)c2)c2cc3c(cc2[C@@H]2OC(=O)OC[C@@H]12)OCO3,0.5 µM
5,COc1cc([C@@H]2c3cc4c(cc3[C@H](O)[C@@H](CO)[C@@H]2C(=O)O)OCO4)cc(OC)c1OC,40 µM
6,CCCOC(=O)[C@@H]1C(c2cc(OC)c(OC)c(OC)c2)c2cc3c(cc2[C@@H]2OC(=O)OC[C@@H]12)OCO3 (some centres not stated),0.5 µM
7,COc1cc([C@@H]2c3cc4c(cc3[C@@H](O[C@@H]3O[C@@H]5CO[C@@H](C)O[C@H]5[C@H](O)[C@H]3O)[C@H]3COC(=O)[C@H]23)OCO4)cc(OC)c1O [ETOPOSIDE],6.16 µM
8,COc1cc([C@@H]2c3cc4c(cc3[C@H](O)[C@H]3COC(=O)[C@H]23)OCO4)cc(OC)c1OC [PODOFILOX],0.01 µM

# System: HCC 2998
# Assay: In vitro cytotoxicity against human colon cancer HCC 2998 cell line
# Type: functional
# Details: not given
row,Compound,GI50
1,COC(=O)[C@@H]1C(c2cc(OC)c(OC)c(OC)c2)c2cc3c(cc2[C@@H]2OC(=O)OC[C@@H]12)OCO3 (some centres not stated),20 µM
2,CCOC(=O)[C@@H]1C(c2cc(OC)c(OC)c(OC)c2)c2cc3c(cc2[C@@H]2OC(=O)OC[C@@H]12)OCO3 (some centres not stated),8 µM
3,CCOC(=O)[C@@H]1[C@H](c2cc(OC)c(O)c(OC)c2)c2cc3c(cc2[C@@H]2OC(=O)OC[C@@H]12)OCO3,1.5 µM
4,COC(=O)[C@@H]1[C@H](c2cc(OC)c(O)c(OC)c2)c2cc3c(cc2[C@@H]2OC(=O)OC[C@@H]12)OCO3,1 µM
5,COc1cc([C@@H]2c3cc4c(cc3[C@H](O)[C@@H](CO)[C@@H]2C(=O)O)OCO4)cc(OC)c1OC,55 µM
6,CCCOC(=O)[C@@H]1C(c2cc(OC)c(OC)c(OC)c2)c2cc3c(cc2[C@@H]2OC(=O)OC[C@@H]12)OCO3 (some centres not stated),2 µM
7,COc1cc([C@@H]2c3cc4c(cc3[C@@H](O[C@@H]3O[C@@H]5CO[C@@H](C)O[C@H]5[C@H](O)[C@H]3O)[C@H]3COC(=O)[C@H]23)OCO4)cc(OC)c1O [ETOPOSIDE],3.46 µM
8,COc1cc([C@@H]2c3cc4c(cc3[C@H](O)[C@H]3COC(=O)[C@H]23)OCO4)cc(OC)c1OC [PODOFILOX],0.2 µM

# System: HT-29
# Assay: In vitro cytotoxicity against human colon cancer HT 29 cell line
# Type: functional
# Details: not given
row,Compound,GI50
1,COC(=O)[C@@H]1C(c2cc(OC)c(OC)c(OC)c2)c2cc3c(cc2[C@@H]2OC(=O)OC[C@@H]12)OCO3 (some centres not stated),> 30 µM
2,CCOC(=O)[C@@H]1C(c2cc(OC)c(OC)c(OC)c2)c2cc3c(cc2[C@@H]2OC(=O)OC[C@@H]12)OCO3 (some centres not stated),2 µM
3,CCOC(=O)[C@@H]1[C@H](c2cc(OC)c(O)c(OC)c2)c2cc3c(cc2[C@@H]2OC(=O)OC[C@@H]12)OCO3,0.2 µM
4,COC(=O)[C@@H]1[C@H](c2cc(OC)c(O)c(OC)c2)c2cc3c(cc2[C@@H]2OC(=O)OC[C@@H]12)OCO3,> 30 µM
5,COc1cc([C@@H]2c3cc4c(cc3[C@H](O)[C@@H](CO)[C@@H]2C(=O)O)OCO4)cc(OC)c1OC,50 µM
6,CCCOC(=O)[C@@H]1C(c2cc(OC)c(OC)c(OC)c2)c2cc3c(cc2[C@@H]2OC(=O)OC[C@@H]12)OCO3 (some centres not stated),> 30 µM
7,COc1cc([C@@H]2c3cc4c(cc3[C@@H](O[C@@H]3O[C@@H]5CO[C@@H](C)O[C@H]5[C@H](O)[C@H]3O)[C@H]3COC(=O)[C@H]23)OCO4)cc(OC)c1O [ETOPOSIDE],15.1 µM
8,COc1cc([C@@H]2c3cc4c(cc3[C@H](O)[C@H]3COC(=O)[C@H]23)OCO4)cc(OC)c1OC [PODOFILOX],0.01 µM

# System: Hs-578T
# Assay: In vitro cytotoxicity against human breast cancer Hs 578.T cell line
# Type: functional
# Details: not given
row,Compound,GI50
1,COc1cc([C@@H]2c3cc4c(cc3[C@@H](O[C@@H]3O[C@@H]5CO[C@@H](C)O[C@H]5[C@H](O)[C@H]3O)[C@H]3COC(=O)[C@H]23)OCO4)cc(OC)c1O [ETOPOSIDE],8 µM
2,COc1cc([C@@H]2c3cc4c(cc3[C@H](O)[C@H]3COC(=O)[C@H]23)OCO4)cc(OC)c1OC [PODOFILOX],0.08 µM

# System: KM12
# Assay: In vitro cytotoxicity against human colon cancer KM 12 cell line
# Type: functional
# Details: not given
row,Compound,GI50
1,COC(=O)[C@@H]1C(c2cc(OC)c(OC)c(OC)c2)c2cc3c(cc2[C@@H]2OC(=O)OC[C@@H]12)OCO3 (some centres not stated),70 µM
2,CCOC(=O)[C@@H]1C(c2cc(OC)c(OC)c(OC)c2)c2cc3c(cc2[C@@H]2OC(=O)OC[C@@H]12)OCO3 (some centres not stated),6 µM
3,CCOC(=O)[C@@H]1[C@H](c2cc(OC)c(O)c(OC)c2)c2cc3c(cc2[C@@H]2OC(=O)OC[C@@H]12)OCO3,0.2 µM
4,COC(=O)[C@@H]1[C@H](c2cc(OC)c(O)c(OC)c2)c2cc3c(cc2[C@@H]2OC(=O)OC[C@@H]12)OCO3,0.4 µM
5,COc1cc([C@@H]2c3cc4c(cc3[C@H](O)[C@@H](CO)[C@@H]2C(=O)O)OCO4)cc(OC)c1OC,< 0.01 µM
6,CCCOC(=O)[C@@H]1C(c2cc(OC)c(OC)c(OC)c2)c2cc3c(cc2[C@@H]2OC(=O)OC[C@@H]12)OCO3 (some centres not stated),2 µM
7,COc1cc([C@@H]2c3cc4c(cc3[C@@H](O[C@@H]3O[C@@H]5CO[C@@H](C)O[C@H]5[C@H](O)[C@H]3O)[C@H]3COC(=O)[C@H]23)OCO4)cc(OC)c1O [ETOPOSIDE],5.62 µM
8,COc1cc([C@@H]2c3cc4c(cc3[C@H](O)[C@H]3COC(=O)[C@H]23)OCO4)cc(OC)c1OC [PODOFILOX],0.01 µM

# System: MCF7
# Assay: In vitro cytotoxicity against human breast cancer MCF-7 cell line
# Type: functional
# Details: not given
row,Compound,GI50
1,COc1cc([C@@H]2c3cc4c(cc3[C@H](O)[C@H]3COC(=O)[C@H]23)OCO4)cc(OC)c1OC [PODOFILOX],0.9 µM

# System: MDA-MB-231
# Assay: In vitro cytotoxicity against human breast cancer MDA-MB 231 cell line
# Type: functional
# Details: not given
row,Compound,GI50
1,COc1cc([C@@H]2c3cc4c(cc3[C@@H](O[C@@H]3O[C@@H]5CO[C@@H](C)O[C@H]5[C@H](O)[C@H]3O)[C@H]3COC(=O)[C@H]23)OCO4)cc(OC)c1O [ETOPOSIDE],2 µM
2,COc1cc([C@@H]2c3cc4c(cc3[C@H](O)[C@H]3COC(=O)[C@H]23)OCO4)cc(OC)c1OC [PODOFILOX],0.04 µM

# System: MDA-MB-435
# Assay: In vitro cytotoxicity against human breast cancer MDA-MB 435 cell line
# Type: functional
# Details: not given
row,Compound,GI50
1,COc1cc([C@@H]2c3cc4c(cc3[C@@H](O[C@@H]3O[C@@H]5CO[C@@H](C)O[C@H]5[C@H](O)[C@H]3O)[C@H]3COC(=O)[C@H]23)OCO4)cc(OC)c1O [ETOPOSIDE],0.9 µM
2,COc1cc([C@@H]2c3cc4c(cc3[C@H](O)[C@H]3COC(=O)[C@H]23)OCO4)cc(OC)c1OC [PODOFILOX],0.7 µM

# System: not listed separately
# Assay: In vitro cytotoxicity against human breast cancer MCF-7 ADR cell line
# Type: functional
# Details: MCF7
row,Compound,GI50
1,COc1cc([C@@H]2c3cc4c(cc3[C@H](O)[C@H]3COC(=O)[C@H]23)OCO4)cc(OC)c1OC [PODOFILOX],0.6 µM

# System: MCF7
# Assay: Compound was evaluated for in vitro cytotoxicity data against human breast cancer MCF-7 ADR cell line
# Type: functional
# Details: not given
row,Compound,GI50
1,COc1cc([C@@H]2c3cc4c(cc3[C@@H](O[C@@H]3O[C@@H]5CO[C@@H](C)O[C@H]5[C@H](O)[C@H]3O)[C@H]3COC(=O)[C@H]23)OCO4)cc(OC)c1O [ETOPOSIDE],25 µM

# System: MDA-N
# Assay: In vitro cytotoxicity against human breast cancer MDA-N cell line
# Type: functional
# Details: not given
row,Compound,GI50
1,COc1cc([C@@H]2c3cc4c(cc3[C@@H](O[C@@H]3O[C@@H]5CO[C@@H](C)O[C@H]5[C@H](O)[C@H]3O)[C@H]3COC(=O)[C@H]23)OCO4)cc(OC)c1O [ETOPOSIDE],< 0.01 µM
2,COc1cc([C@@H]2c3cc4c(cc3[C@H](O)[C@H]3COC(=O)[C@H]23)OCO4)cc(OC)c1OC [PODOFILOX],0.07 µM
